# Data: patent US8106048B2, “Heterocyclic NF-κB inhibitors” (4SC AG, priority 2004, dated 2012)
# Tested on: A549-NF-κB-SEAP reporter cells
# Experiment: Inhibition of NF-κB-induced inflammation: […] NINA Instant Assay, TNF-α stimulated SEAP reporter
# Format: cell-based
# Conditions: % inhibition classes
# Source text: For the determination of anti-inflammatory activity of the compounds the […]® NINA Instant Assay from Cell Culture Service GmBH was used. This assay is based on […] recombinant A549-NF-κB-SEAP reporter cells preceded in 96-well flat bottom plates. As the transfected reportergen for SEAP (secreted embryonic alkaline phosphatase) is under transcriptional control of a NF-κB-responsive element, the expression of this reporter is activated upon stimulation with TNF-α. SEAP secretion into the culture supernatant can be detected by the chemiluminescent substrate CSPD®. Test compounds that inhibit the NF-κB activation show reduced SEAP activity and reduced luminescent readout.
# Following 18 h of reactivation at 37° C., 5% CO2 and 90% relative humidity, the cells were incubated with 0.01 up to 100 μM of test compound for 4.5 h before stimulation with 2 ng/ml TNF-α. After stimulation with TNF-α for 22 h endogenous phosphatases were inactivated and CSPD® substrate was supplied for 40 min. SEAP activity then was quantified by measuring luminescence as relative light units (RLU) using a Tecan Ultra reader. Each data point was recorded in quadruplicates and EC50 values were calculated via fitting function and the Microsoft Excel Solver.
row,SMILES,Biological activity (inhibition in the NF-κB inflammation assay)
1,O=C(c1csc(C2CCN(C(=O)c3ccccc3OC(F)(F)F)CC2)n1)N1CCN(c2ncnc3nc[nH]c23)CC1 [compound 129],+ (“+” stands for 50-80% inhibition)
2,N=C(NC(=O)c1csc(C2CCNCC2)n1)Nc1nc2ccccc2[nH]1 [compound 94],+ (“+” stands for 50-80% inhibition)
3,N=C(NC(=O)c1cnc(NC(=O)c2ccccc2OC(F)(F)F)s1)Nc1nc2ccccc2[nH]1 [compound 50],+++ (“+++” stands for 90-100% inhibition)
4,CN(C)c1cccc(C(=O)N2CCC(c3nc(C(=O)N4CCN(c5cccc(C(F)(F)F)c5)CC4)cs3)CC2)c1 [compound 226],++ (“++” means 80-90%)
5,O=C(c1csc(C2CCN(S(=O)(=O)c3ccc(OC(F)(F)F)cc3)CC2)n1)N1CCN(c2cccc(C(F)(F)F)c2)CC1 [compound 205],+ (“+” stands for 50-80% inhibition)
6,N#Cc1ccc(CN2CCN(c3nc(C(=O)N4CCN(c5cccc(C(F)(F)F)c5)CC4)cs3)CC2)cc1 [compound 62],+++ (“+++” stands for 90-100% inhibition)
7,O=C(c1cc(C(F)(F)F)cc(C(F)(F)F)c1)N1CCN(c2nc(C(=O)N3CCN(c4cccc(C(F)(F)F)c4)CC3)cs2)CC1 [compound 59],+ (“+” stands for 50-80% inhibition)
8,Cc1cc2nc(NC(=O)c3csc(C4CCNCC4)n3)[nH]c2cc1C [compound 144],+ (“+” stands for 50-80% inhibition)
9,O=C(c1csc(N2CCNCC2)n1)N1CCN(c2cccc(C(F)(F)F)c2)CC1 [compound 64],+ (“+” stands for 50-80% inhibition)
10,O=C(c1csc(C2CCN(Cc3cccc(OC(F)(F)F)c3)CC2)n1)N1CCN(c2cccc(C(F)(F)F)c2)CC1 [compound 115],++ (“++” means 80-90%)
11,O=C(Nc1ccc(F)cc1)N1CCC(c2nc(C(=O)N3CCN(c4cccc(C(F)(F)F)c4)CC3)cs2)CC1 [compound 143],+ (“+” stands for 50-80% inhibition)
12,O=C(c1cccnc1)N1CCC(c2nc(C(=O)N3CCN(c4cccc(C(F)(F)F)c4)CC3)cs2)CC1 [compound 222],+ (“+” stands for 50-80% inhibition)
13,CN(C(=O)c1csc(C2CCN(C(=O)c3ccccc3OC(F)(F)F)CC2)n1)C(CN1CCOCC1)c1ccccc1 (stereo not shown) [compound 147],+ (“+” stands for 50-80% inhibition)
14,O=C(c1csc(N2CCN(C(=O)c3ccccc3OC(F)(F)F)CC2)n1)N1CCN(c2cccc(C(F)(F)F)c2)CC1 [compound 39],+++ (“+++” stands for 90-100% inhibition)
15,O=C(O)c1ccccc1C(=O)N1CCC(c2nc(C(=O)N3CCN(c4cccc(C(F)(F)F)c4)CC3)cs2)CC1 [compound 185],+ (“+” stands for 50-80% inhibition)
16,N#CNC(=N)NC(=O)c1csc(C2CCN(C(=O)c3ccccc3OC(F)(F)F)CC2)n1 [compound 90],+ (“+” stands for 50-80% inhibition)
17,O=C(Cc1ccc(F)cc1)N1CCC(c2nc(C(=O)N3CCc4ccccc43)cs2)CC1 [compound 162],+ (“+” stands for 50-80% inhibition)
18,O=C(NCCc1cccs1)N1CCC(c2nc(C(=O)N3CCN(c4cccc(C(F)(F)F)c4)CC3)cs2)CC1 [compound 77],+++ (“+++” stands for 90-100% inhibition)
19,O=C(O)C1=C(C(=O)N2CCC(c3nc(C(=O)N4CCN(c5cccc(C(F)(F)F)c5)CC4)cs3)CC2)CCCC1 [compound 190],+ (“+” stands for 50-80% inhibition)

row,SMILES,Biological activity (inhibition in the NF-κB inflammation assay)
1,O=C(Nc1ccccc1)N1CCC(c2nc(C(=O)N3CCN(c4cccc(C(F)(F)F)c4)CC3)cs2)CC1 [compound 73],++ (“++” means 80-90%)
2,CCCCN1CCN(C(=O)c2csc(C3CCN(C(=O)Cc4ccc(F)cc4)CC3)n2)CC1 [compound 231],+ (“+” stands for 50-80% inhibition)
3,O=C(c1csc(C2CCN(S(=O)(=O)c3c(F)c(F)c(F)c(F)c3F)CC2)n1)N1CCN(c2cccc(C(F)(F)F)c2)CC1 [compound 193],+ (“+” stands for 50-80% inhibition)
4,COc1nc(OC)nc(N2CCN(C(=O)c3csc(C4CCN(Cc5ccccc5)CC4)n3)CC2)n1 [compound 120],+ (“+” stands for 50-80% inhibition)
5,COc1nc(OC)nc(N2CCN(C(=O)c3csc(C4CCN(C(=O)c5ccccc5OC(F)(F)F)CC4)n3)CC2)n1 [compound 127],+ (“+” stands for 50-80% inhibition)
6,O=C(c1csc(C2CCN(C(=O)C3COc4ccccc4O3)CC2)n1)N1CCN(c2cccc(C(F)(F)F)c2)CC1 (stereo not shown) [compound 217],+++ (“+++” stands for 90-100% inhibition)
7,Cc1cc2nc(NC(=O)c3csc(C4CCN(C(=O)c5ccccc5OC(F)(F)F)CC4)n3)[nH]c2cc1C [compound 133],+++ (“+++” stands for 90-100% inhibition)
8,CN(C)c1ncnc(NC(=O)c2csc(C3CCN(C(=O)c4ccccc4OC(F)(F)F)CC3)n2)n1 [compound 88],+ (“+” stands for 50-80% inhibition)
9,O=C(c1csc(C2CCN(S(=O)(=O)c3cccs3)CC2)n1)N1CCN(c2cccc(C(F)(F)F)c2)CC1 [compound 194],+ (“+” stands for 50-80% inhibition)
10,CC1c2cc(O)c(O)cc2CCN1C(=O)c1csc(C2CCN(C(=O)Cc3ccc(F)cc3)CC2)n1 (stereo not shown) [compound 233],+ (“+” stands for 50-80% inhibition)
11,O=C(c1csc(C2CCN(C(=O)c3ccccc3OC(F)(F)F)CC2)n1)N1CCC(n2nnc3ccccc32)CC1 [compound 111],+ (“+” stands for 50-80% inhibition)
12,COc1ccc(N2CCC(c3nc(C(=O)N4CCN(c5cccc(C(F)(F)F)c5)CC4)cs3)CC2)c(OC)c1 [compound 153],+ (“+” stands for 50-80% inhibition)
13,COc1ccc(OC)c(N2CCC(c3nc(C(=O)N4CCN(c5cccc(C(F)(F)F)c5)CC4)cs3)CC2)c1 [compound 29],++ (“++” means 80-90%)
14,O=C(c1csc(C2CCN(c3ccc4c(c3)OCO4)CC2)n1)N1CCN(c2cccc(C(F)(F)F)c2)CC1 [compound 156],+ (“+” stands for 50-80% inhibition)
15,O=C(Nc1cccc(F)c1)N1CCC(c2nc(C(=O)N3CCN(c4cccc(C(F)(F)F)c4)CC3)cs2)CC1 [compound 142],++ (“++” means 80-90%)
16,NC(=Nc1nc2ccccc2[nH]1)NC(=O)c1csc(NC(=O)c2ccccc2OC(F)(F)F)n1 [compound 82],+++ (“+++” stands for 90-100% inhibition)
17,O=C(CCC1CCCC1)Nc1nc(C(=O)N2CCN(c3cccc(C(F)(F)F)c3)CC2)cs1 [compound 33],+++ (“+++” stands for 90-100% inhibition)
18,Cc1nnsc1C(=O)N1CCC(c2nc(C(=O)N3CCN(c4cccc(C(F)(F)F)c4)CC3)cs2)CC1 [compound 221],+ (“+” stands for 50-80% inhibition)
